Assay results as given in patent US12439944B2, “3-hydroxybutyrate compounds for use in reducing liver fat” (TDeltaS Limited, priority 2017, dated 2025).

Experiments:
[1] = Blood (R)-3-hydroxybutyrate level after oral administration; format: in vivo; settings: for circulating levels of (R)-3-hydroxybutyrate in the blood: general statement; for uptake in the gut: upon consumption of a drink
Experimental: At a dose of 1 g/kg of body weight of the subject, the blood (R)-3-hydroxybutyrate concentration is suitably at least 4 mM, preferably 5 mM. Upon oral administration of monoester of 1.5 g/kg of body weight of the subject, the blood (R)-3-hydroxybutyrate concentration is suitably at least 7 mM, preferably at least 8 mM, especially at least 9 mM. A dosing regime comprises multiple drinks consumed separately.
Blood levels of (R)-3-hydroxybutyrate may be determined by commercially available testing kits, for example, (R)-3-hydroxybutyrate can be measured on whole blood using a handheld monitor and reagent strips (Precision Xtra, Abbott Diabetes Care, UK).

liver fat [2] = assay: Reduction of liver fat, general statement; format: in vivo
[3] = Body weight change after five-day ketone ester drink regime; format: in vivo, human; settings: 393 mg/kg body weight 3 times per day for 5 days
Experimental: Three obese subjects (BMI 33±3 kg/m^2) and seven lean subjects (BMI 23±2 kg/m^2), matched for age, gender, diabetes duration, treatment and HBA1c, underwent a ^1H-MRS scan for quantification of liver steatosis. All subjects were weighed and underwent a treatment regime for five days in which each subject consumed three drinks per day containing 0.393 g/kg body weight of (R)-3-hydroxybutyrate-R-1,3-butanediol monoester, made up to a final volume of 3.3 ml/kg body weight. […] The subjects were not asked to change their normal diet, but did keep diet diaries. Subjects lost 1.3 kg over the five-day period, irrespective of their starting body weight. The weight loss in 7 lean subjects (FIG. 1a) and 3 obese subjects (FIG. 1b) was the same, 1.3 kg, after drinking 393 mg/kg body weight (R)-3-hydroxybutyrate-(R)-1,3 butanediol monoester (ΔG®) 3 times per day for 5 days.

liver fat [4] = assay: 1H Magnetic Resonance Spectroscopy (MRS) of liver, quantification of liver fat; format: in vivo, human; settings: for liver fat (hepatic triglyceride relative to water): lean subjects; for liver triglyceride level: obese subjects
Experimental: Three obese subjects (BMI 33±3 kg/m^2) and seven lean subjects (BMI 23±2 kg/m^2), matched for age, gender, diabetes duration, treatment and HBA1c, underwent a ^1H-MRS scan for quantification of liver steatosis. All subjects were weighed and underwent a treatment regime for five days in which each subject consumed three drinks per day containing 0.393 g/kg body weight of (R)-3-hydroxybutyrate-R-1,3-butanediol monoester, made up to a final volume of 3.3 ml/kg body weight. […] Liver ^1H-MRS was performed on each of the subjects at the beginning and end of the 5 days to determine the change in liver fat. The ^1H-MRS measurements were carried out on a 3 T Siemens Tim Trio using a whole-body coil and 6-channel anterior plus 24-channel posterior phased-array coils for signal receiving. To obtain hepatic ^1H-MRS, an 8-ml voxel (2×2×2) was positioned in the liver, avoiding gross vascular, biliary structures and adipose tissue depots. Spectra, with and without water suppression, were obtained to calculate hepatic triglyceride content as a percentage relative to water (triglyceride/water×100). A calibration pulse sequence was implemented to evaluate the optimal water suppression pulse scaling factor. Individual coil signals were combined within Matlab using specifically written modules. The water-suppressed scans were constructively averaged, including frequency correction. Spectra were quantified using the Advanced Method of Accurate, Robust and Efficient Spectroscopic ([…]) fitting algorithm. Metabolite peaks (including lipid/triglycerides) were analyzed and prior knowledge was used for all peak locations by using soft constraints. All peaks were fitted using Lorentzian lineshapes.

[5] = end of the 5 days, 393 mg/kg 3 times per day

| circulating levels of (R)-3-hydroxybutyrate in the blood [1] | period of raised (R)-3-hydroxybutyrate concentrations ([1]; compared with ketone salts) | Compound | uptake in the gut [1] | effect on liver fat (liver fat [2]) | weight loss ([3]; 3 obese subjects) [kg] | weight loss ([3]; 7 lean subjects) [kg] | change in liver fat (liver fat [4]; 7 lean subjects, 393 mg/kg 3 times per day for 5 days) | liver fat (hepatic triglyceride relative to water) (liver fat [4]; beginning of the 5 days) [%] | liver fat (hepatic triglyceride relative to water) (liver fat [4]; [5]) [%] | liver triglyceride level (liver fat [4]; beginning of the 5 days) [%] | liver triglyceride level (liver fat [4]; [5]) [%] |
| --- | --- | --- | --- | --- | --- | --- | --- | --- | --- | --- | --- |
| high circulating levels | – | (R)-3-hydroxybutyrate-glycerol partial ester | surprisingly high level of uptake in the gut | reduce liver fat | – | – | – | – | – | – | – |
| high circulating levels | longer period than ketone salts | C[C@@H](O)CCOC(=O)C[C@@H](C)O [(R)-3-hydroxybutyrate (R)-1,3-butanediol monoester] | surprisingly high level of uptake in the gut | reduce liver fat | 1.3 | 1.3 | no loss of liver fat | 2.3 | 2.5 | 17.5 | 14.1 |
